Calls of active or inactive are those of the source. The calls are words filed in the database; no cut-off is given here.
Experiments:
[1] = test system: Mus musculus; test: Toxicity in mouse assessed as tail bleeding time at 0.50 mmol/kg, po administered 45 mins prior to tail transection measured every 30 secs (reference value: 119.8 +/- 8.4 sec); type: organism-based; details: in vivo
[2] = test system: Mus musculus; test: Anti-inflammatory activity in ICR mouse assessed as inhibition of xylene induced ear edema at 0.02 mmol/kg, po pretreated for 30 mins followed by xylene challenge measured after 2 hrs; type: functional, organism-based
[3] = test system: Mus musculus; test: Toxicity in mouse assessed as tail bleeding time at 0.50 mmol/kg, po administered 90 mins prior to tail transection measured every 30 secs (reference value: 119.3 +/- 7.7 sec); type: organism-based; details: in vivo
[4] = test system: Mus musculus; test: Toxicity in mouse assessed as tail bleeding time at 0.50 mmol/kg, po administered 60 mins prior to tail transection measured every 30 secs (reference value: 120.4 +/- 7.9 sec); type: organism-based; details: in vivo
[5] = test system: Mus musculus; test: Anti-inflammatory activity in ICR mouse assessed as inhibition of xylene induced ear edema at 0.10 mmol/kg pretreated orally for 30 mins followed by xylene challenge measured after 2 hrs relative to control; type: functional; details: po
[6] = test system: Rattus norvegicus; test: (§1) Protection against ischemia/reperfusion-induced Wistar rat intestinal injury model assessed as well-preserved glandular architecture at 30 mg/kg administered as bolus dose pretreated for 5 mins followed by 12 hrs reperfusion and subsequent compound addition at 10 mg/kg administered at 1 hr interval during reperfusion period by hematoxylin-eosin/trichrome/NADH-diaphorase staining based histopathological analysis; type: functional, organism-based
[7] = test system: HUVEC; test: Protection against simulated ischemia/reperfusion injury induced mitochondrial oxidative damage in HUVEC assessed as decrease in mitochondrial reactive oxygen species level at 30 ug/ml pretreated for 12 hrs followed by compound washout and subsequent ischemia simulation for 2 hrs in presence of compound prior to 3 hrs reperfusion under drug free medium by MitoProbe based confocal microscopic analysis; type: functional, cell-based; details: Homo sapiens
[8] = test system: Mus musculus; test: Anti-inflammatory activity in ICR mouse assessed as inhibition of xylene induced ear edema pretreated orally for 30 mins followed by xylene challenge measured after 2 hrs; type: functional
[9] = test system: HUVEC; test: Protection against simulated ischemia/reperfusion injury-induced cell death in HUVEC assessed as increase in cell viability at 30 ug/ml treated for 12 hrs under normoxic condition prior to simulated ischemia for 2 hrs followed by compound washout measured 3 hrs post reperfusion; type: functional, cell-based; details: Homo sapiens
[10] = test system: Rattus norvegicus; test: as §1, with “ischemia/reperfusion induced” for “ischemia/reperfusion-induced”, “reduction in denudation of villous tips” for “well-preserved glandular architecture”, “treatment” for “addition”; type: functional, organism-based
[11] = test system: Rattus norvegicus; test: Protection against ischemia/reperfusion-induced Wistar rat intestinal injury model assessed as effect on TNFalpha levels at 30 mg/kg administered as bolus dose pretreated for 5 mins followed by 12 hrs reperfusion and subsequent compound addition at 10 mg/kg administered at 1 hr interval during reperfusion period by ELISA (reference value: 62.9 +/- 8.7 pg/ml); type: functional
[12] = test system: Mus musculus; test: Toxicity in mouse assessed as tail bleeding time at 0.50 mmol/kg, po administered 30 mins prior to tail transection measured every 30 secs (reference value: 120.5 +/- 7.9 sec); type: organism-based; details: in vivo
[13] = test system: Rattus norvegicus; test: as §1, with “ischemia/reperfusion induecd” for “ischemia/reperfusion-induced”, “decrease in mucosal neutrophil infiltration” for “well-preserved glandular architecture”; type: functional, organism-based
[14] = test system: Rattus norvegicus; test: Protection against ischemia/reperfusion-induced Wistar rat intestinal injury model assessed as reduction in lipid peroxidation by measuring lipid peroxide levels at 30 mg/kg administered as bolus dose pretreated for 5 mins followed by 12 hrs reperfusion and subsequent compound addition at 10 mg/kg administered at 1 hr interval during reperfusion period measured at 1.5 to 12 hrs post reperfusion by spectrophotometric method; type: functional, organism-based
[15] = test system: Rattus norvegicus; test: as §1, with “reduction in mitochondrial oxidative damage” for “well-preserved glandular architecture”, “Mitoprobe” for “hematoxylin-eosin/trichrome/NADH-diaphorase”, “assay” for “histopathological analysis”; type: functional, organism-based
[16] = test system: HUVEC; test: Protection against simulated ischemia/reperfusion injury induced mitochondrial oxidative damage in HUVEC assessed as increase in tubular mitochondrial cells at 30 ug/ml pretreated for 12 hrs followed by compound washout and subsequent ischemia simulation for 2 hrs in presence of compound prior to 3 hrs reperfusion under drug free medium by MitoProbe based confocal microscopic analysis; type: functional, cell-based; details: Homo sapiens
[17] = test system: HUVEC; test: Protection against simulated ischemia and reperfusion injury induced mitochondrial oxidative damage in HUVEC assessed as reduction in cytochrome c release at 30 ug/ml treated for 12 hrs under normoxic condition prior to simulated ischemia for 2 hrs followed by compound washout measured 3 hrs post reperfusion by MitoProbe based immuno-fluorescence assay (reference value: 71.2 +/- 4.5%); type: functional, Homo sapiens; design: scale not given: the % may be the effect or the level left
[18] = test system: Mus musculus; test: Anti-inflammatory activity in xylene induced ICR mouse ear edema model assessed as edema weight at 0.10 mmol/kg, po pretreated 30 mins followed by xylene challenge measured after 2 hrs (reference value: 4.07 +/- 0.51 mg); type: functional
[19] = test system: Mus musculus; test: Anti-inflammatory activity in ICR mouse assessed as inhibition of xylene induced ear edema at 20 mg/kg pretreated orally for 30 mins followed by xylene challenge measured after 2 hrs relative to control; type: functional; details: po
[20] = test system: Mus musculus; test: Anti-inflammatory activity in xylene induced ICR mouse ear edema model assessed as edema weight at 20 mg/kg, po pretreated 30 mins followed by xylene challenge measured after 2 hrs (reference value: 4.07 +/- 0.51 mg); type: functional

Row | SMILES | Time [1] | inhibition [2] | Time [3] | Time [4] | inhibition in vivo at 100 µmol/kg [5] | Activity [6] | Activity [7] | inhibition [8] | Activity [9] | Activity [10] | Activity [11] | Time [12] | Activity [13] | Activity [14] | Activity [15] | Activity [16] | Activity [17] | Activity [18] | inhibition in vivo at 20 mg/kg [19] | Activity [20]
1 | CC1(C)CC(n2cc(CNC(=O)CC[C@@H](NC(=O)[C@@H]3Cc4c([nH]c5ccccc45)CN3C(=O)[C@@H]3Cc4c([nH]c5ccccc45)CN3)C(=O)NCc3cn(C4CC(C)(C)N([O])C(C)(C)C4)nn3)nn2)CC(C)(C)N1[O] | 117.1 s | Active | 118.3 s | 119 s | 80.3% | Active | Active | Dose-dependent effect | Active | Active | 19 pg/mL | 116.6 s | Active | Active | Active | Active | 23.1% | 0.8 mg | – | –
2 | CC(=O)Oc1ccccc1C(=O)O [ASPIRIN] | – | – | – | – | – | – | – | – | – | – | – | – | – | – | – | – | – | – | 47.1% | 2.15 mg
3 | CC1(C)CC(n2cc(CNC(=O)C[C@@H](NC(=O)[C@@H]3Cc4c([nH]c5ccccc45)CN3C(=O)[C@@H]3Cc4c([nH]c5ccccc45)CN3)C(=O)NCc3cn(C4CC(C)(C)N([O])C(C)(C)C4)nn3)nn2)CC(C)(C)N1[O] | 118.2 s | Active | 120.5 s | 119.3 s | 76.7% | Active | Active | Dose-dependent effect | Active | Active | 21.7 pg/mL | 116.3 s | – | Active | – | Active | 29.8% | 0.95 mg | – | –
